Test results taken from patent US8703815B2, “Small molecules that covalently modify transthyretin” (The Scripps Research Institute, priority 2009, dated 2014).

How the values were obtained:
Assay type in all cases: binding
WT-TTR = target: T1, WT-TTR (Homo sapiens, UniProt P02766); assay: Fluorimetric assay with recombinant WT-TTR; settings: for increase in fluorescence intensity with WT-TTR vs compound alone in buffer: 24 hours
T1 construct: composed of 127-residue β-sheet-rich subunits; made in house; host or cells: E. coli
Experimental: WT-TTR was expressed in an E. coli expression system and purified as described previously. […] The samples were vortexed, and incubated for 18 h at 25° C. […] The excitation slit was set at 5 nm and the emission slit was set at […]. The samples were excited at 328 nm and the emission spectra were collected from 350 to 550 nm. WT-TTR was expressed and purified from an E. coli expression system as described previously. [Lashuel et al., Biochemistry 1999, 38:13560]. […] The samples were vortexed, and incubated for 18 hours at 25° C. […] The excitation slits was set at 5 nm and the emission slits was set at […]. The samples were excited at 328 nm and the emission spectra were collected from 330 to 550 nm (FIG. 4). The time-dependent fluorescence changes were monitored in similar manner (FIG. 5).

K15A-TTR = target: T2, K15A-TTR (Homo sapiens, UniProt P02766, K35A); assay: Fluorimetric assay with recombinant K15A-TTR
T2 construct: composed of 127-residue β-sheet-rich subunits; made in house
Experimental: [The source words this procedure for another variant and says it was used here with some conditions changed.] The excitation spectra are shown with dotted traces (λmax=328 nm), and emission spectra are adjacently (λmax=384 nm). Very low fluorescence resulted from 328 nm excitation of stilbene Compounds 4 or 2 alone in buffer (FIGS. 4A and 4B; traces substantially on the X-axis).
WT-TTR was expressed in an E. coli expression system and purified as described previously. [Lashuel et al., Biochemistry 1999, 38, 13560-13573] The covalent TTR modifiers (A1 or A2) or the non-covalent TTR ligand B2 (5 μL of a 1.44 mM solution in DMSO, final concentration: 7.2 μM) were added to 1 mL of a solution of WT-TTR homotetramer (0.2 mg/mL, 3.6 μM) in 10 mM phosphate, 100 mM KCl and 1 mM EDTA (pH 7.0 phosphate buffer) in a 2 mL Eppendorf tube. The samples were vortexed, and incubated for 18 h at 25° C. The fluorescence changes were monitored using a Varian Cary 50 spectrofluorometer at 20° C. in a 1 cm path length quartz cell. The excitation slit was set at 5 nm and the emission slit was set at […]. The samples were excited at 328 nm and the emission spectra were collected from 350 to 550 nm.
WT-TTR was expressed and purified from an E. coli expression system as described previously. [Lashuel et al., Biochemistry 1999, 38:13560]. The covalent modifiers (Compounds 4 or 2) or the non-covalent TTR ligand Compound B2 (5 μL of a 1.44 mM solution in DMSO) were added to 1 mL of a solution of WT-TTR (0.2 mg/mL, 3.6 μM) in 10 mM phosphate, 100 mM KCl and 1 mM EDTA (pH 7.0) in a 2 mL Eppendorf tube. The samples were vortexed, and incubated for 18 hours at 25° C. The fluorescence changes were monitored using a Varian Cary 50 spectrofluorometer at 20° C. in a 1 cm path length quartz cell. The excitation slits was set at 5 nm and the emission slits was set at […]. The samples were excited at 328 nm and the emission spectra were collected from 330 to 550 nm (FIG. 4). The time-dependent fluorescence changes were monitored in similar manner (FIG. 5).

[1] = target: T3, TTR in human blood plasma (Homo sapiens, UniProt P02766); assay: Modification of TTR in human blood plasma (immunocapture, RP-HPLC); settings: compound 10.8 μM, 24 hours, 37° C.; maximum 50%
T3 construct: RP-HPLC analysis of TTR captured from human plasma; from tissue; host or cells: human blood plasma
Experimental: Compounds 1-4 (10.8 μM) were incubated for 24 hours at 37° C. with human plasma, wherein the TTR concentration is 3.6-5.4 μM.
Furthermore, compound A2 was evaluated to determine its ability to bind selectively to and then react chemoselectively with TTR over the 4000+ other proteins in human blood plasma. Compound A2 (10.8 μM) was incubated with human blood plasma (TTR concentration is 3.6-5.4 μM) for 24 hours at 37° C. before immunoisolating human TTR using a Sepharose® resin-conjugated anti-TTR polyclonal antibody [Purkey et al., Proc. Natl. Acad. Sci. U.S.A. 2001, 98, 5566-5571].
The modification ratio of TTR by kinetic stabilizers in human plasma was evaluated as described [Purkey et al., Proc. Natl. Acad. Sci. U.S.A. 98:5566-5571 (2001)] with minor modifications. Briefly, compounds (7.5 μL of 1.44 mM solution in DMSO) were added to 1 mL of human plasma and incubated at 37° C. for 24 hours on a rocker (30 rpm). A 1:1 (v/v) slurry of unfunctionalized Sepharose® resin in 10 mM Tris, 140 mM NaCl, pH 8.0 (TSA) was added and the solutions were incubated for 1 hour at 4° C. on a rocker plate, followed by brief centrifugation.
Two 400 μL aliquots of the supernatants were added to 300 μL of 1:1 (v:v) slurry of anti-TTR antibody-conjugated Sepharose® resin in TSA. The solutions were gently rocked at 4° C. for 20 minutes (30 rpm), centrifuged, and supernatants were removed. The resin was washed by shaking for 1 minute in 1 mL of TSA solution containing 0.05% saponin (three times) and then 1 mL of TSA solution (twice). The TTR and bound test compound were dissociated from the resin by adding 155 μL of triethylamine (100 mM, pH 11.5) and vortexing for 1 minute. After centrifugation, 135 μL of solution containing test compound and TTR was analyzed by RP-HPLC as described above except that the linear gradients were run from 100:0 to 0:100 A:B for 45 minutes.

| t50 of conjugation to WT-TTR by fluorescence (WT-TTR; WT-TTR […], compound 7.2 μM) [min] | fluorescence upon binding to K15A-TTR (in words) (K15A-TTR) | % Modification of TTR subunits in Human Blood Plasma [1] | fluorescence after incubation with WT-TTR (in words) (WT-TTR; phosphate buffer pH 7, 18 hours) | Structure (SMILES) | increase in fluorescence intensity with WT-TTR vs compound alone in buffer (WT-TTR; WT-TTR […], compound 7.2 μM) |
| --- | --- | --- | --- | --- | --- |
| 22 | remain non-fluorescent | 48% (±1.3%) | – | Cc1cc(/C=C/c2cccc(C(=O)Sc3ccccc3)c2)cc(C)c1O [Compound 2, (E)-S-phenyl 3-(4-hydroxy-3,5-dimethylstyryl)benzothioate] | about 1100 fold |
| – | no significant fluorescence increase | 48% | bright blue fluorescence | Cc1cc(/C=C/c2cc(C(=O)Sc3ccc(F)cc3)cc(N(C)C)c2)cc(C)c1O [Compound A2, (E)-S-4-fluorophenyl 3-(dimethylamino)-5-(4-hydroxy-3,5-dimethylstyryl)-benzothioate] | – |

| Structure (SMILES) | t50 of conjugation to WT-TTR by fluorescence (WT-TTR; WT-TTR […], compound 7.2 μM) [min] | fluorescence upon binding to K15A-TTR (in words) (K15A-TTR) | % Modification of TTR subunits in Human Blood Plasma [1] | fluorescence after incubation with WT-TTR (in words) (WT-TTR; phosphate buffer pH 7, 18 hours) | increase in fluorescence intensity with WT-TTR vs compound alone in buffer (WT-TTR; WT-TTR […], compound 7.2 μM) |
| --- | --- | --- | --- | --- | --- |
| Cc1cc(/C=C/c2cccc(C(=O)Oc3ccc(F)cc3)c2)cc(C)c1O [Compound 4, (E)-4-fluorophenyl 3-(4-hydroxy-3,5-dimethylstyryl)benzoate] | – | remain non-fluorescent | – | – | about 560 fold |
